Measurements from the supplement of paper PMC8617591.

Assays:
[1] = test system: Mycobacterium tuberculosis Erdman (autoluminescent); experiment: FIC90 (Loewe) at 90% inhibition (log2); higher = more antagonistic
Experimental: (§1)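 DiaMOND equipotent two-drug combination dose responses against autoluminescent M. tuberculosis Erdman in 8 in vitro models. Read-out is OD600, or luminescence for the intracellular and dormancy models, normalised to untreated wells. Hill-fit Einf, AUC25 and GRinf are potency metrics; FIC50 and FIC90 are Loewe-additivity fractional inhibitory concentrations, given as log2 (negative = synergy). Replicates are averaged.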

[2] = test system: Mycobacterium tuberculosis Erdman (autoluminescent); experiment: AUC25, normalised area under dose response up to IC25 (fraction (0-1)); higher = more potent at low dose
Experimental: as §1

[3] = test system: Mycobacterium tuberculosis Erdman (autoluminescent); experiment: FIC50 (Loewe) at 50% inhibition (log2); higher = more antagonistic
Experimental: as §1

[4] = test system: Mycobacterium tuberculosis Erdman (autoluminescent); experiment: GRinf, maximum normalised growth rate inhibition (unitless (-1 to 1)); higher = less effect (negative = killing)
Experimental: as §1

[5] = test system: Mycobacterium tuberculosis Erdman (autoluminescent); experiment: Einf, fitted maximum growth inhibition of combination (fraction); higher = stronger maximal inhibition
Experimental: as §1

[6] = in vitro model: acidic pH 5.7, time point: terminal (~4-5 doublings, model-specific)
[7] = in vitro model: butyrate, time point: constant (~7 days, model-specific)
[8] = in vitro model: butyrate, time point: terminal (~4-5 doublings, model-specific)
[9] = in vitro model: cholesterol 0.05 mM, time point: terminal (~4-5 doublings, model-specific)
[10] = in vitro model: cholesterol-high 0.2 mM, time point: constant (~7 days, model-specific)
[11] = in vitro model: cholesterol-high 0.2 mM, time point: terminal (~4-5 doublings, model-specific)
[12] = in vitro model: dormancy (butyrate + nitrate, low O2), time point: constant (~7 days, model-specific)
[13] = in vitro model: dormancy (butyrate + nitrate, low O2), time point: terminal (~4-5 doublings, model-specific)
[14] = in vitro model: intracellular J774, time point: constant = terminal
[15] = in vitro model: standard 7H9 glycerol, time point: constant = terminal
[16] = in vitro model: valerate, time point: constant (~7 days, model-specific)
[17] = in vitro model: valerate, time point: terminal (~4-5 doublings, model-specific)
[18] = in vitro model: acidic pH 5.7, time point: constant (~7 days, model-specific)
[19] = in vitro model: cholesterol 0.05 mM, time point: constant (~7 days, model-specific)

Work on `COc1nc2ccc(Br)cc2cc1[C@@H](c1ccccc1)[C@@](O)(CCN(C)C)c1cccc2ccccc12` [bedaquiline] + NNC(=O)c1ccncc1 [isoniazid] yielded an FIC90 [1, 6] of 0.404, an FIC90 [1, 7] of 0.547 and an FIC90 [1, 8] of 0.506. It also gave an FIC90 [1, 9] of 0.193, an FIC90 [1, 10] of 0.699 and an FIC90 [1, 11] of 0.25. The FIC90 [1, 12] was 0.194, the FIC90 [1, 13] was -0.202 and the FIC90 [1, 14] was 0.531. For the same molecule, the FIC90 [1, 15] was -0.0712, the FIC90 [1, 16] was 0.24 and the FIC90 [1, 17] was 0.741. It also gave an AUC25 [2, 18] of 0.107, an AUC25 [2, 6] of 0.0934 and an AUC25 [2, 7] of 0.0598. It also gave an AUC25 [2, 8] of 0.0557, an AUC25 [2, 19] of 0.102 and an AUC25 [2, 9] of 0.0662. For the same molecule, the AUC25 [2, 10] was 0.0815, the AUC25 [2, 11] was 0.0507 and the AUC25 [2, 12] was 0.0656. For the same molecule, the AUC25 [2, 13] was 0.0512, the AUC25 [2, 15] was 0.0578 and the AUC25 [2, 16] was 0.0996. It also gave an AUC25 [2, 17] of 0.0554, an FIC50 [3, 18] of 0.428 and an FIC50 [3, 6] of 0.351. It also gave an FIC50 [3, 7] of 0.533, an FIC50 [3, 8] of 0.43 and an FIC50 [3, 19] of 0.373. It also gave an FIC50 [3, 9] of 0.302, an FIC50 [3, 10] of 0.284 and an FIC50 [3, 11] of 0.335. For the same molecule, the FIC50 [3, 12] was 0.646, the FIC50 [3, 13] was 0.0908 and the FIC50 [3, 15] was -0.0769. It also gave an FIC50 [3, 16] of 0.561, an FIC50 [3, 17] of 0.661 and a GRinf [4, 18] of -0.331. For the same molecule, the GRinf [4, 6] was -0.384, the GRinf [4, 7] was -0.0886 and the GRinf [4, 8] was -0.111. For the same molecule, the GRinf [4, 19] was -0.169, the GRinf [4, 9] was -0.202 and the GRinf [4, 10] was -0.49. It also gave a GRinf [4, 11] of -0.658, a GRinf [4, 12] of 0.179 and a GRinf [4, 13] of -0.0876. The GRinf [4, 14] was -0.383, the GRinf [4, 15] was -0.124 and the GRinf [4, 16] was -0.194. The GRinf [4, 17] was -0.129, the Einf [5, 18] was 0.873 and the Einf [5, 6] was 0.984. For the same molecule, the Einf [5, 7] was 0.944, the Einf [5, 8] was 0.98 and the Einf [5, 19] was 0.729. For the same molecule, the Einf [5, 9] was 0.913, the Einf [5, 10] was 0.964 and the Einf [5, 11] was 0.996. For the same molecule, the Einf [5, 12] was 0.92, the Einf [5, 13] was 0.983 and the Einf [5, 14] was 0.98. For the same molecule, the Einf [5, 15] was 0.966, the Einf [5, 16] was 0.946 and the Einf [5, 17] was 0.971.
`COc1nc2ccc(Br)cc2cc1[C@@H](c1ccccc1)[C@@](O)(CCN(C)C)c1cccc2ccccc12` [bedaquiline] + O=[N+]([O-])c1cn2c(n1)OC[C@@H](OCc1ccc(OC(F)(F)F)cc1)C2 [pretomanid] gave an FIC90 [1, 18] of 0.503, an FIC90 [1, 6] of 0.292 and an FIC90 [1, 7] of 1.49. The FIC90 [1, 8] was 1.5, the FIC90 [1, 9] was 1.33 and the FIC90 [1, 10] was 1.04. It also gave an FIC90 [1, 11] of 0.706, an FIC90 [1, 12] of -0.857 and an FIC90 [1, 13] of -1.14. The FIC90 [1, 14] was 0.703, the FIC90 [1, 15] was 0.269 and the FIC90 [1, 16] was 1.2. The FIC90 [1, 17] was 0.71, the AUC25 [2, 18] was 0.121 and the AUC25 [2, 6] was 0.0888. The AUC25 [2, 7] was 0.105, the AUC25 [2, 8] was 0.0889 and the AUC25 [2, 19] was 0.118. It also gave an AUC25 [2, 9] of 0.0926, an AUC25 [2, 10] of 0.0648 and an AUC25 [2, 11] of 0.0479. For the same molecule, the AUC25 [2, 12] was 0.0466, the AUC25 [2, 13] was 0.0475 and the AUC25 [2, 15] was 0.0817. The AUC25 [2, 16] was 0.136, the AUC25 [2, 17] was 0.099 and the FIC50 [3, 18] was 0.399. For the same molecule, the FIC50 [3, 6] was 0.169, the FIC50 [3, 7] was 0.76 and the FIC50 [3, 8] was 0.874. The FIC50 [3, 19] was 0.484, the FIC50 [3, 9] was 0.466 and the FIC50 [3, 10] was 0.673. It also gave an FIC50 [3, 11] of 0.686, an FIC50 [3, 12] of -0.341 and an FIC50 [3, 13] of -0.522. For the same molecule, the FIC50 [3, 15] was 0.0934, the FIC50 [3, 16] was 0.105 and the FIC50 [3, 17] was 0.0653. It also gave a GRinf [4, 18] of -0.293, a GRinf [4, 6] of -0.358 and a GRinf [4, 7] of -0.17. It also gave a GRinf [4, 8] of -0.346, a GRinf [4, 19] of -0.158 and a GRinf [4, 9] of -0.23. For the same molecule, the GRinf [4, 10] was -0.183, the GRinf [4, 11] was -0.576 and the GRinf [4, 12] was 0.169. For the same molecule, the GRinf [4, 13] was -0.0913, the GRinf [4, 14] was -0.579 and the GRinf [4, 15] was -0.196. The GRinf [4, 16] was -0.238, the GRinf [4, 17] was -0.0796 and the Einf [5, 18] was 0.879. It also gave an Einf [5, 6] of 0.973, an Einf [5, 7] of 0.96 and an Einf [5, 8] of 0.99. The Einf [5, 19] was 0.737, the Einf [5, 9] was 0.928 and the Einf [5, 10] was 0.883. The Einf [5, 11] was 0.991, the Einf [5, 12] was 0.927 and the Einf [5, 13] was 0.98. For the same molecule, the Einf [5, 14] was 1, the Einf [5, 15] was 0.982 and the Einf [5, 16] was 0.935. It also gave an Einf [5, 17] of 0.96.
`CC(C)/N=c1\cc2n(-c3ccc(Cl)cc3)c3ccccc3nc-2cc1Nc1ccc(Cl)cc1` [clofazimine] + CC(=O)NC[C@H]1CN(c2ccc(N3CCOCC3)c(F)c2)C(=O)O1 [linezolid] showed an FIC90 [1, 6] of 0.0194, an FIC90 [1, 7] of 0.875 and an FIC90 [1, 8] of 0.85. The FIC90 [1, 9] was 1.4, the FIC90 [1, 10] was 1.38 and the FIC90 [1, 11] was 0.449. It also gave an FIC90 [1, 12] of 0.93, an FIC90 [1, 13] of 0.839 and an FIC90 [1, 14] of 0.457. It also gave an FIC90 [1, 15] of 0.696, an FIC90 [1, 16] of 0.827 and an FIC90 [1, 17] of 0.597. It also gave an AUC25 [2, 18] of 0.0778, an AUC25 [2, 6] of 0.111 and an AUC25 [2, 7] of 0.113. For the same molecule, the AUC25 [2, 8] was 0.0908, the AUC25 [2, 19] was 0.152 and the AUC25 [2, 9] was 0.164. It also gave an AUC25 [2, 10] of 0.131, an AUC25 [2, 11] of 0.133 and an AUC25 [2, 12] of 0.0454. The AUC25 [2, 13] was 0.0463, the AUC25 [2, 15] was 0.117 and the AUC25 [2, 16] was 0.148. It also gave an AUC25 [2, 17] of 0.0982, an FIC50 [3, 18] of 0.346 and an FIC50 [3, 6] of 0.329. The FIC50 [3, 7] was 0.573, the FIC50 [3, 8] was 0.626 and the FIC50 [3, 19] was -0.262. The FIC50 [3, 9] was -0.033, the FIC50 [3, 10] was 0.143 and the FIC50 [3, 11] was -0.317. It also gave an FIC50 [3, 12] of 1.67, an FIC50 [3, 13] of 1.05 and an FIC50 [3, 15] of 0.286. The FIC50 [3, 16] was -0.104, the FIC50 [3, 17] was 0.165 and the GRinf [4, 18] was -0.00597. The GRinf [4, 6] was -0.305, the GRinf [4, 7] was -0.158 and the GRinf [4, 8] was -0.142. It also gave a GRinf [4, 19] of -0.0419, a GRinf [4, 9] of -0.35 and a GRinf [4, 10] of -0.536. The GRinf [4, 11] was -0.854, the GRinf [4, 12] was 0.239 and the GRinf [4, 13] was -0.123. It also gave a GRinf [4, 14] of -0.0533, a GRinf [4, 15] of -0.276 and a GRinf [4, 16] of -0.186. It also gave a GRinf [4, 17] of -0.107, an Einf [5, 18] of 0.864 and an Einf [5, 6] of 0.973. The Einf [5, 7] was 0.957, the Einf [5, 8] was 0.98 and the Einf [5, 19] was 0.747. For the same molecule, the Einf [5, 9] was 0.951, the Einf [5, 10] was 0.917 and the Einf [5, 11] was 0.994. The Einf [5, 12] was 0.901, the Einf [5, 13] was 0.981 and the Einf [5, 14] was 0.855. The Einf [5, 15] was 0.979, the Einf [5, 16] was 0.925 and the Einf [5, 17] was 0.944.
